A short description of this series: Determination of the protein binding (90% serum, 30 kDa filter, HPLC). The class given is in vitro ADME. The conditions noted are these: serum. The procedure: Protein binding assays were performed as follows. The purified peptides were mixed with 90% serum and centrifuged through a 30 kDa filter. The ultra-filtrate and the non filtrated serum samples were quantified by HPLC measurements and the protein binding was subsequently calculated.

One may read the fraction unbound as the share of the substance not bound to proteins or other matrix.

Where a SMILES comes first, the peptide text is derived from it. Bridges are numbered along the chain shown (N, C = ends).

`CC(C)[C@@H]1NC(=O)CNC(=O)[C@H](CC(N)=O)NC(=O)[C@H](CCCNC(=N)N)NC(=O)[C@H](Cc2ccc(O)cc2)NC(=O)[C@H](C(C)C)NC(=O)[C@@H]2CSSC[C@H](NC(=O)[C@H](C(C)C)NC(=O)[C@H](CCCNC(=N)N)NC1=O)C(=O)N[C@@H](Cc1ccc(O)cc1)C(=O)N[C@@H](CCCNC(=N)N)C(=O)N[C@@H](CCCNC(=N)N)C(=O)N[C@H](C(=O)N[C@@H](CC(N)=O)C(=O)O)CSSC[C@H](NC(=O)[C@H](Cc1ccccc1)NC(=O)CN)C(=O)N[C@@H](Cc1c[nH]c3ccccc13)C(=O)N[C@@H](CC(N)=O)C(=O)N[C@@H](C(C)C)C(=O)N2` [compound 11] (H-GFCWNVCVYRNGVRVCYRRCN-OH; disulfide 3-20, 7-16 (inferred); N-terminus and C-terminus assumed) had a fraction unbound of 0.27.
Consider `CC(C)C[C@@H]1NC(=O)[C@H](CCCNC(=N)N)NC(=O)[C@H](C(C)C)NC(=O)CNC(=O)[C@H](CC(N)=O)NC(=O)[C@H](CCCNC(=N)N)NC(=O)[C@H](Cc2ccc(O)cc2)NC(=O)[C@H](C(C)C)NC(=O)[C@@H]2CSSC[C@H](NC1=O)C(=O)N[C@@H](Cc1c[nH]cn1)C(=O)N[C@@H](CCCNC(=N)N)C(=O)N[C@@H](CCCNC(=N)N)C(=O)N[C@H](C(=O)N[C@@H](CC(N)=O)C(=O)O)CSSC[C@H](NC(=O)[C@H](Cc1ccccc1)NC(=O)CN)C(=O)N[C@@H](Cc1c[nH]c3ccccc13)C(=O)N[C@@H](CC(N)=O)C(=O)N[C@@H](C(C)C)C(=O)N2` [compound 249] (H-GFCWNVCVYRNGVRLCHRRCN-OH; disulfide 3-20, 7-16 (inferred); N-terminus and C-terminus assumed), for which the fraction unbound was 0.17.
Regarding `CC(C)[C@@H]1NC(=O)[C@H](CCCNC(=N)N)NC(=O)[C@H](Cc2c[nH]c3ccccc23)NC(=O)[C@@H](NC(=O)[C@H](Cc2ccccc2)NC(=O)CN)CSSC[C@@H](C(=O)N[C@@H](CC(N)=O)C(=O)O)NC(=O)[C@H](CCCNC(=N)N)NC(=O)[C@H](CCCNC(=N)N)NC(=O)[C@H](Cc2ccc(O)cc2)NC(=O)[C@@H]2CSSC[C@H](NC1=O)C(=O)N[C@@H](C)C(=O)N[C@@H](Cc1ccc(O)cc1)C(=O)N[C@@H](CO)C(=O)N[C@@H](CC(N)=O)C(=O)NCC(=O)N[C@@H](CCCCN)C(=O)N[C@@H](CCCNC(=N)N)C(=O)N[C@@H](C(C)C)C(=O)N2` [compound 425] (H-GFCWRVCAYSNGKRVCYRRCN-OH; disulfide 3-20, 7-16 (inferred); N-terminus and C-terminus assumed), the fraction unbound was 0.31.
In turn, `CC(C)[C@@H]1NC(=O)CNC(=O)[C@H](CC(N)=O)NC(=O)[C@H](CCCNC(=N)N)NC(=O)[C@H](Cc2ccc(O)cc2)NC(=O)[C@H](C)NC(=O)[C@@H]2CSSC[C@H](NC(=O)[C@H](C)NC(=O)[C@H](CCCNC(=N)N)NC1=O)C(=O)N[C@@H](Cc1ccc(O)cc1)C(=O)N[C@@H](CCCNC(=N)N)C(=O)N[C@@H](CCCNC(=N)N)C(=O)N[C@H](C(=O)N[C@@H](CC(N)=O)C(=O)O)CSSC[C@H](NC(=O)[C@H](Cc1ccccc1)NC(=O)CN)C(=O)N[C@@H](Cc1c[nH]c3ccccc13)C(=O)N[C@@H](Cc1ccc(O)cc1)C(=O)N[C@@H](C)C(=O)N2` [compound 343] (H-GFCWYACAYRNGVRACYRRCN-OH; disulfide 3-20, 7-16 (inferred); N-terminus and C-terminus assumed) had a fraction unbound of 0.26.
In turn, `CC(C)[C@@H]1NC(=O)CNC(=O)[C@H](CC(N)=O)NC(=O)[C@H](CCCNC(=N)N)NC(=O)[C@H](Cc2ccc(O)cc2)NC(=O)[C@H](C(C)C)NC(=O)[C@@H]2CSSC[C@H](NC(=O)[C@H](Cc3c[nH]cn3)NC(=O)[C@H](CCCNC(=N)N)NC1=O)C(=O)N[C@@H](Cc1ccc(O)cc1)C(=O)N[C@@H](CCCNC(=N)N)C(=O)N[C@@H](CCCNC(=N)N)C(=O)N[C@H](C(=O)N[C@@H](CC(N)=O)C(=O)O)CSSC[C@H](NC(=O)[C@H](Cc1ccccc1)NC(=O)CN)C(=O)N[C@@H](Cc1c[nH]c3ccccc13)C(=O)N[C@@H](Cc1ccc(O)cc1)C(=O)N[C@@H](C(C)C)C(=O)N2` [compound 39] (H-GFCWYVCVYRNGVRHCYRRCN-OH; disulfide 3-20, 7-16 (inferred); N-terminus and C-terminus assumed) gave a fraction unbound of 0.02.
`CC(C)[C@@H]1NC(=O)[C@H](CCCNC(=N)N)NC(=O)CNC(=O)CNC(=O)[C@H](CC(N)=O)NC(=O)[C@H](CCCNC(=N)N)NC(=O)[C@H](Cc2ccc(O)cc2)NC(=O)[C@H](C(C)C)NC(=O)[C@@H]2CSSC[C@H](NC1=O)C(=O)N[C@@H](Cc1ccc(O)cc1)C(=O)N[C@@H](CCCNC(=N)N)C(=O)N[C@@H](CCCNC(=N)N)C(=O)N[C@H](C(=O)N[C@@H](CC(N)=O)C(=O)O)CSSC[C@H](NC(=O)[C@H](Cc1ccccc1)NC(=O)CN)C(=O)N[C@@H](Cc1c[nH]c3ccccc13)C(=O)N[C@@H](Cc1ccc(O)cc1)C(=O)N[C@@H](C(C)C)C(=O)N2` [compound 30] (H-GFCWYVCVYRNGGRVCYRRCN-OH; disulfide 3-20, 7-16 (inferred); N-terminus and C-terminus assumed) came in with a fraction unbound of 0.01.
For the compound `CC(C)C[C@@H]1NC(=O)[C@@H]2CSSC[C@H](NC(=O)[C@H](C(C)C)NC(=O)[C@H](CCCNC(=N)N)NC(=O)[C@H](C(C)C)NC(=O)CNC(=O)[C@H](CC(N)=O)NC(=O)[C@H](CCCNC(=N)N)NC(=O)[C@H](Cc3ccc(O)cc3)NC1=O)C(=O)N[C@@H](Cc1c[nH]cn1)C(=O)N[C@@H](CCCNC(=N)N)C(=O)N[C@@H](CCCNC(=N)N)C(=O)N[C@H](C(=O)N[C@@H](CC(N)=O)C(=O)O)CSSC[C@H](NC(=O)[C@H](Cc1ccccc1)NC(=O)CN)C(=O)N[C@@H](Cc1c[nH]c3ccccc13)C(=O)N[C@@H](CC(N)=O)C(=O)N[C@@H](C(C)C)C(=O)N2` [compound 275] (H-GFCWNVCLYRNGVRVCHRRCN-OH; disulfide 3-20, 7-16 (inferred); N-terminus and C-terminus assumed), the fraction unbound was 0.2.
For the compound `CC(C)[C@@H]1NC(=O)CNC(=O)[C@H](CC(N)=O)NC(=O)[C@H](CCCNC(=N)N)NC(=O)[C@H](CCCCN)NC(=O)[C@H](C)NC(=O)[C@@H]2CSSC[C@H](NC(=O)[C@H](C(C)C)NC(=O)[C@H](CCCNC(=N)N)NC1=O)C(=O)N[C@@H](Cc1ccc(O)cc1)C(=O)N[C@@H](CCCNC(=N)N)C(=O)N[C@@H](CCCNC(=N)N)C(=O)N[C@H](C(=O)N[C@@H](CC(N)=O)C(=O)O)CSSC[C@H](NC(=O)[C@H](Cc1ccccc1)NC(=O)CN)C(=O)N[C@@H](C)C(=O)N[C@@H](CCCNC(=N)N)C(=O)N[C@@H](C(C)C)C(=O)N2` [compound 363] (H-GFCARVCAKRNGVRVCYRRCN-OH; disulfide 3-20, 7-16 (inferred); N-terminus and C-terminus assumed), the fraction unbound is 0.2.
As for `CC(C)C[C@@H]1NC(=O)CNC(=O)[C@H](CC(N)=O)NC(=O)[C@H](CCCNC(=N)N)NC(=O)[C@H](CCCCN)NC(=O)[C@H](CO)NC(=O)[C@@H]2CSSC[C@H](NC(=O)[C@H](C(C)C)NC(=O)[C@H](CCCNC(=N)N)NC1=O)C(=O)N[C@@H](Cc1ccc(O)cc1)C(=O)N[C@@H](CCCNC(=N)N)C(=O)N[C@@H](CCCNC(=N)N)C(=O)N[C@H](C(=O)N[C@@H](CC(N)=O)C(=O)O)CSSC[C@H](NC(=O)[C@H](Cc1ccccc1)NC(=O)CN)C(=O)N[C@@H](Cc1c[nH]c3ccccc13)C(=O)N[C@@H](Cc1c[nH]cn1)C(=O)N[C@@H](C(C)C)C(=O)N2` [compound 396] (H-GFCWHVCSKRNGLRVCYRRCN-OH; disulfide 3-20, 7-16 (inferred); N-terminus and C-terminus assumed), the figure is 0.08.

The record behind these values is patent US20160158317A1, “Antimicrobial Peptide Variants and Polynucleotides Encoding Same” (Adenium Biotech A/S, priority 2010, published 2016).
